Legend:
UGT91D-like3 = assay: Assay for enzyme activity of UGT91D-like3 on glycosyl acceptor substrates, LC-MS analysis; format: biochemical, stevia; settings: for product formation on reaction of the glycosyl acceptor substrate with UGT91D-like3: 2 mM UDP-glucose, 0.1 mM glycosyl acceptor substrate, potassium phosphate buffer pH 7.0, 30° C., an hour, LC-MS
Procedure: (§1) Standard conditions for the enzyme reaction were as follows: A reaction solution (2 mM UDP-glucose, 0.1 mM glycosyl acceptor substrate, 100 mM potassium phosphate buffer (pH 7.0) and 25 μl of purified UGT91D-like3 enzyme solution) was prepared in distilled water to become 50 μl, and reacted at 30° C. for an hour. LC-MS analysis was performed for 5 μl of the enzyme reaction solution under the following conditions.
Column: Waters Sunfire C18 3.5 um […]
Moving phase: A: MilliQ Water (+0.05% formic acid), B: MeCN
Gradient: linear density gradient from 15% to 55% in B density (20 mins.)
Steviolmonoside (peak B) was prepared by reacting UGT85C2 and steviol (peak A), and the steviolmonoside was reacted with UGT91D-like3. […] This peak was identified as steviolbioside based on the retention time and mass fragmentation pattern. […] It was confirmed that UGT91D-like3 had the activity of forming steviolbioside (peak C) by glucosylation of steviolmonoside (peak B).

[1] = Comparison in relative enzyme activity between recombinant UGT proteins, rubusoside as substrate; format: biochemical, stevia; settings: for relative enzyme activity (amount of stevioside produced divided by amount of protein): glucosylation activity of UGT91D2e made 100%
Procedure: as §1
As given below, the Escherichia coli expression construct of UGT91D2e was prepared, and the enzyme activities of UGT91D2e and UGT91D-like3 were evaluated by the same manner as in EXAMPLES 3 and 4.
The enzyme activities were compared between the purified proteins of UGT91D-like3 and UGT91D2e expressed in Escherichia coli. Using rubusoside as substrate, the comparison was made under the same enzyme reaction conditions and analysis conditions as in EXAMPLE 4. A relative enzyme activity was calculated by dividing the amount of stevioside produced by the amount of the protein provided for the reaction.

[2] = reported in the prior art (Non-Patent Document 2); cited from earlier work

## O=c1ccn([C@@H]2O[C@H](COP(=O)(O)OP(=O)(O)O[C@H]3OC[C@@H](O)[C@H](O)[C@H]3O)[C@@H](O)[C@H]2O)c(=O)[nH]1 [UDP-xylose]
UGT91D-like3
  use as sugar donor by UGT91D-like3: did not use UDP-xylose as the sugar donor

## C=C1C[C@@]23CC[C@H]4[C@@](C)(CCC[C@@]4(C)C(=O)O[C@@H]4O[C@H](CO)[C@@H](O)[C@H](O)[C@H]4O)[C@@H]2CC[C@]1(O[C@@H]1O[C@H](CO)[C@@H](O)[C@H](O)[C@H]1O)C3 [rubusoside]
UGT91D-like3
  product formation on reaction of the glycosyl acceptor substrate with UGT91D-like3: gave a new peak E

## C=C1C[C@@]23CC[C@H]4[C@@](C)(CCC[C@@]4(C)C(=O)O)[C@@H]2CC[C@]1(O)C3 [steviol]
UGT91D-like3
  product formation on reaction of the glycosyl acceptor substrate with UGT91D-like3: no product was detected

## C=C1C[C@@]23CC[C@H]4[C@@](C)(CCC[C@@]4(C)C(=O)O)[C@@H]2CC[C@]1(O[C@@H]1O[C@H](CO)[C@@H](O)[C@H](O)[C@H]1O[C@@H]1O[C@H](CO)[C@@H](O)[C@H](O)[C@H]1O)C3 [steviolbioside]
UGT91D-like3
  product formation on reaction of the glycosyl acceptor substrate with UGT91D-like3: any new product was not detected

## C=C1C[C@@]23CC[C@H]4[C@@](C)(CCC[C@@]4(C)C(=O)O)[C@@H]2CC[C@]1(O[C@@H]1O[C@H](CO)[C@@H](O)[C@H](O)[C@H]1O)C3 [steviolmonoside]
UGT91D-like3
  product formation on reaction of the glycosyl acceptor substrate with UGT91D-like3: a new product (peak C) was detected

B1: UGT91D2e: prior art glucosyltransferase (Patent Document 3), SEQ ID NO: 32, short by the 12 amino acids (protein, listed as Stevia rebaudiana)
chain: MATSDSIVDDRKQLHVATFPWLAFGHILPYLQLSKLIAEKGHKVSFLSTTRNIQRLSSHISPLINVVQLTLPRVQELPEDAEATTDVHPEDIPYLKKASDGLQPEVTRFLEQHSPDWIIYDYTHYWLPSIAASLGISRAHFSVTTPWAIAYMGPSADAMINGSDGRTTVEDLTTPPKWFPFPTKVCWRKHDLARLVPYKAPGISDGYRMGLVLKGSDCLLSKCYHEFGTQWLPLLETLHQVPVVPVGLLPPEIPGDEKDETWVSIKKWLDGKQKGSVVYVALGSEVLVSQTEVVELALGLELSGLPFVWAYRKPKGPAKSDSVELPDGFVERTRDRGLVWTSWAPQLRILSHESVCGFLTHCGSGSIVEGLMFGHPLIMLPIFGDQPLNARLLEDKQVGIEIPRNEEDGCLTKESVARSLRSVVVEKEGEIYKANARELSKIYNDTKVEKEYVSQFVDYLEKNARAVAIDHES
[1]
  relative enzyme activity (amount of stevioside produced divided by amount of protein): 100%

B2: UGT91D-like3: novel stevia glucosyltransferase, amino acid sequence SEQ ID NO: 2 (protein, listed as Stevia rebaudiana)
chain: MYNVTYHQNSKAMATSDSIVDDRKQLHVATFPWLAFGHILPYLQLSKLIAEKGHKVSFLSTTRNIQRLSSHISPLINVVQLTLPRVQELPEDAEATTDVHPEDIPYLKKASDGLQPEVTRFLEQHSPDWIIYDYTHYWLPSIAASLGISRAHFSVTTPWAIAYMGPSADAMINGSDGRTTVEDLTTPPKWFPFPTKVCWRKHDLARLVPYKAPGISDGYRMGLVLKGSDCLLSKCYHEFGTQWLPLLETLHQVPVVPVGLLPPEIPGDEKDETWVSIKKWLDGKQKGSVVYVALGSEVLVSQTEVVELALGLELSGLPFVWAYRKPKGPAKSDSVELPDGFVERTRDRGLVWTSWAPQLRILSHESVCGFLTHCGSGSIVEGLMFGHPLIMLPIFGDQPLNARLLEDKQVGIEIPRNEEDGCLTKESVARSLRSVVVEKEGEIYKANARELSKIYNDTKVEKEYVSQFVDYLEKNARAVAIDHES
[1]
  relative enzyme activity per protein amount higher than UGT91D2e: 67%
  relative enzyme activity (amount of stevioside produced divided by amount of protein): 167%

B3: UGT91D1: known stevia glucosyltransferase, GENBANK Accession No. AY345980 (protein, UniProt Q6VAA8 1-485, looked up)
UDP-glycosyltransferase 91D1: MYNVTYHQNSKAMATSDSIVDDRKQLHVATFPWLAFGHILPFLQLSKLIAEKGHKVSFLSTTRNIQRLSSHISPLINVVQLTLPRVQELPEDAEATTDVHPEDIQYLKKAVDGLQPEVTRFLEQHSPDWIIYDFTHYWLPSIAASLGISRAYFCVITPWTIAYLAPSSDAMINDSDGRTTVEDLTTPPKWFPFPTKVCWRKHDLARMEPYEAPGISDGYRMGMVFKGSDCLLFKCYHEFGTQWLPLLETLHQVPVVPVGLLPPEIPGDEKDETWVSIKKWLDGKQKGSVVYVALGSEALVSQTEVVELALGLELSGLPFVWAYRKPKGPAKSDSVELPDGFVERTRDRGLVWTSWAPQLRILSHESVCGFLTHCGSGSIVEGLMFGHPLIMLPIFCDQPLNARLLEDKQVGIEIPRNEEDGCLTKESVARSLRSVVVENEGEIYKANARALSKIYNDTKVEKEYVSQFVDYLEKNARAVAIDHES
[2]
  activity for steviolmonoside: no activity

From patent US10000783B2, “Steviol glucosyltransferases and genes encoding the same” (SUNTORY HOLDINGS LIMITED, priority 2012, dated 2018)
